As a reminder, the Ki is a dissociation constant, usually derived from enzyme kinetics or from competition with a known ligand. In general, pKa refers to the pH at which an ionisable group is half protonated.

Data on seven compounds can be found in ChEMBL document CHEMBL1155339, “Characterization of alpha-nitromethyl ketone as a new zinc-binding group based on structural analysis of its complex with carboxypeptidase A” (Bioorg Med Chem Lett, 2009).

The target of one data set is T1, Carboxypeptidase A1 (Homo sapiens, UniProt P15085).
T1 sequence (P15085 whole entry): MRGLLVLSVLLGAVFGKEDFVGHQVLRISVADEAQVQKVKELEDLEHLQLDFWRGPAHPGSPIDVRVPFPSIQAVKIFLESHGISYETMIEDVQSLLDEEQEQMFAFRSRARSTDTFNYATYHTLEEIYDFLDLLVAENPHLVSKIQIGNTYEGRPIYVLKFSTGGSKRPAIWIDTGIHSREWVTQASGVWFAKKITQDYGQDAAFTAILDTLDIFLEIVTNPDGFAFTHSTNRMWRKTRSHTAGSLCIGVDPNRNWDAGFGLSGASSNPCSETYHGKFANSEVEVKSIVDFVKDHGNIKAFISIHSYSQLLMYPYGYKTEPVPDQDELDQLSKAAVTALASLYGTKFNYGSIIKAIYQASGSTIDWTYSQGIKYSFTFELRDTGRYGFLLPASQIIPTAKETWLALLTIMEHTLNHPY
Briefly: Inhibition of Carboxypeptidase A assessed as amount of Cl-CPL consumed by UV spectrometer.
As for `O=C(O)C(CC(=O)C(F)(F)F)Cc1ccccc1` (racemic), the Ki turned out to be 0.2 µM.

In the case of `CC(=O)CC(Cc1ccccc1)C(=O)O` (racemic), the inhibition constant Ki came out at 207 µM.

For the compound `O=C(CC(Cc1ccccc1)C(=O)O)C[N+](=O)[O-]` (racemic), the Ki was 0.43 µM.

For the compound `O=C(C[C@H](Cc1ccccc1)C(=O)O)C[N+](=O)[O-]`, the Ki was found to be 31 µM.

Regarding `O=C(C[C@@H](Cc1ccccc1)C(=O)O)C[N+](=O)[O-]`, the Ki was found to be 0.16 µM.

As for `O=C(CBr)CC(Cc1ccccc1)C(=O)O` (racemic), the inhibition constant (Ki) was found to be 15 µM.

System in another data set: not listed separately
Nature of the data set: Dissociation constant, pKa of the compound. The format is physicochemical.
`O=C(O)C[N+](=O)[O-]` [NITROACETIC ACID] returned a pKa of 1.68.
